Read-outs that look alike come from different tables or passages of the source. Where a SMILES comes first, the peptide text is derived from it. Bridges are numbered along the chain shown (N, C = ends). [ ]: non-standard residue; d: D form. The star is where a group is joined. Decanoyl(3R-OH) = CCCCCCC[C@@H](O)CC(=O)*; dDab = NCC[C@@H](N)C(=O)O; Dab = NCC[C@H](N)C(=O)O
Columns and labels:
[1] = system: C. gattii MMRL 2651
Description: (§1) A broth microdilution assay was initially used to characterize the antifungal activity of the cyclic lipopeptides ([39], [40]). […] common pathogenic yeasts (C. albicans, C. glabrata, C. parapsilosis, C. neoformans, and C. gattii) and one pathogenic mold (A. fumigatus) were tested to determine the MIC for each compound (Table 1) using broth microdilution. […] The only structural difference between these molecules is the presence of a phenylalanine residue at position 6 in PMB; in PME a D-leucine is present at this location (Fig. 1).
(§2) Fungal strains were stored in 15% glycerol at −80°C until use. The fungal strains used were H99 (C. neoformans type strain) ([55]), cap59Δ (an acapsular H99 mutant) ([56]), ATCC 90113 (C. neoformans), MMRL 2651 (C. gattii), ATCC 90028 (Candida albicans), ATCC 90030 (Candida glabrata), ATCC 22019 (Candida parapsilosis), and ATCC MYA 3626 (Aspergillus fumigatus). Yeasts were cultured in liquid (1% yeast extract, 2% Bacto peptone, 2% glucose) or solid (additional 2% agar) yeast extract-peptone-dextrose (YPD) media at 30°C and maintained at 4°C for no longer than 2 weeks. A. fumigatus was prepared on potato dextrose medium at 30°C and maintained at 4°C for no longer than 2 weeks.
(§3) The MICs of the yeast strains for PMB, PME, and octapeptin C4 and its derivatives were determined in accordance with CLSI M27-A2 guidelines using YNB (Becton Dickinson, USA) medium supplemented with 10 mM ammonium sulfate and 2% glucose, a final inoculum concentration of 1.5 × 10^3 to 2.0 × 10^3 cells/ml, and incubation at 35°C for 72 h ([39]). […] The MICs for PMB, PME, and octapeptin C4 for A. fumigatus were determined in accordance with the CLSI M38-A2 guidelines ([40]) using synthetic RPMI 1640 medium (with glutamine, without bicarbonate and with phenol red; Life Technologies, USA). The final inoculum concentration was 0.4 × 10^4 to 5 × 10^4 cells/ml, with incubation at 35°C for 48 h. […] All assays were completed in triplicate. Fluconazole was used as a positive control where the MIC was determined at both 50% growth (in accordance with CLSI M27-A2 guidelines) and when there was a “no visible growth” reading.

[2] = system: C. neoformans ATCC 90113; details: ATCC 90113, 72 h
Description: as §1, §2, §3

[3] = system: C. neoformans H99; details: H99, 72 h
Description: as §1, §2, §3

[4] = system: C. neoformans H99 (cap59Δ); format: cell-based, Cryptococcus neoformans; details: Table 2; triplicate, values consistent across replicates
Source text: The different susceptibility of C. neoformans and C. gattii to PMB compared to other pathogenic fungi such as C. albicans and A. fumigatus has been postulated to arise from differences in cell surface composition ([38]). One key difference is the presence of a negatively charged polysaccharide capsule in Cryptococcus spp. proposed to concentrate the cationic lipopeptides at the cell surface ([38]). To examine this potential interaction for the octapeptin series, a C. neoformans cap59Δ mutant strain deficient in the secretion of negatively charged glucuronoxylomannan (an α1–3-linked mannan containing β1,2 and β1,4 xylosyl substitutions, as well as β1,2-linked glucuronyl residues) ([41], [42]), was tested against octapeptin C4 in comparison to PMB.
as §2, §3

[5] = system: C. neoformans var. grubii; experiment: organism not typed
Description: The MICs of the yeast strains for PMB, PME, and octapeptin C4 and its derivatives were determined in accordance with CLSI M27-A2 guidelines using YNB (Becton Dickinson, USA) medium supplemented with 10 mM ammonium sulfate and 2% glucose, a final inoculum concentration of 1.5 × 10^3 to 2.0 × 10^3 cells/ml, and incubation at 35°C for 72 h ([39]). […] The MICs for PMB, PME, and octapeptin C4 for A. fumigatus were determined in accordance with the CLSI M38-A2 guidelines ([40]) using synthetic RPMI 1640 medium (with glutamine, without bicarbonate and with phenol red; Life Technologies, USA). The final inoculum concentration was 0.4 × 10^4 to 5 × 10^4 cells/ml, with incubation at 35°C for 48 h. […] All assays were completed in triplicate. Fluconazole was used as a positive control where the MIC was determined at both 50% growth (in accordance with CLSI M27-A2 guidelines) and when there was a “no visible growth” reading. […]

[6] = system: C. neoformans var. gattii; experiment: microbe, parasite or virus in culture; details: no visible growth
Description: as §3

[7] = system: C. neoformans var. neoformans; experiment: microbe, parasite or virus in culture; details: Cryptococcus neoformans, no visible growth
Description: as §3

[8] = Table 2, C. gattii, triplicate, values consistent across replicates

CCCCCCC[C@@H](O)CC(=O)N[C@H](CCN)C(=O)N[C@H]1CCNC(=O)[C@H](CC(C)C)NC(=O)[C@H](CCN)NC(=O)[C@H](CCN)NC(=O)[C@H](CC(C)C)NC(=O)[C@@H](Cc2ccccc2)NC(=O)[C@H](C)NC1=O [Compound P3] ({Decanoyl(3R-OH)}-[dDab][Dab]A[dF]L[Dab][Dab]L; lactam 2-C)
6.25 µg/mL: MICs against various Cryptococcus strains: ATCC 90113 [2] | MICs against various Cryptococcus strains: H99 [3]
12.5 µg/mL: MICs against various Cryptococcus strains: MMRL 2651 [1, 8] | MICs against various Cryptococcus strains: H99 (cap59Δ) [4]

CCCCCCC[C@@H](O)CC(=O)N[C@H](CCN)C(=O)N[C@H]1CCNC(=O)[C@H](C)NC(=O)[C@H](CCN)NC(=O)[C@H](CCN)NC(=O)[C@H](CC(C)C)NC(=O)[C@@H](Cc2ccccc2)NC(=O)[C@H](CCN)NC1=O [Compound P8] ({Decanoyl(3R-OH)}-[dDab][Dab][Dab][dF]L[Dab][Dab]A; lactam 2-C)
6.25 µg/mL: MICs against various Cryptococcus strains: ATCC 90113 [2]
50.0 µg/mL: MICs against various Cryptococcus strains: MMRL 2651 ([1]; 72 h) | MICs against various Cryptococcus strains: H99 [3]
100 µg/mL: MICs against various Cryptococcus strains: H99 (cap59Δ) [4]

C[C@@H]1[C@H](O)[C@@H](C)/C=C/C=C/C=C/C=C/C=C/C=C/C=C/[C@H](O[C@@H]2O[C@H](C)[C@@H](O)[C@H](N)[C@@H]2O)C[C@@H]2O[C@](O)(C[C@@H](O)C[C@@H](O)[C@H](O)CC[C@@H](O)C[C@@H](O)CC(=O)O[C@H]1C)C[C@H](O)[C@H]2C(=O)O [Amphotericin B, amphotericin B]
12.5 µg/mL: MIC ([6]; Cryptococcus neoformans, strain R270 (Vancouver Island)) | MIC ([6]; strain 96/1120-2 (CSF HIV2 France))
3.13 µg/mL: MIC [5] | MIC ([5]; Cryptococcus neoformans) | MIC ([5]; strain 486 (USA), no visible growth) | MIC ([5]; strain 488 (AIDS+, pre-HAART USA), no visible growth) | MIC ([5]; strain 490 (USA), no visible growth) | MIC ([5]; strain 496 (USA), no visible growth) | MIC ([5]; strain 500 (USA), no visible growth) | MIC ([5]; strain 502 (ARR3+ USA), no visible growth) | MIC ([5]; strain 505 (India), no visible growth) | MIC ([5]; strain 507 (India), no visible growth) | MIC ([5]; strain 510 (VNII India), no visible growth) | MIC ([5]; strain 512 (India), no visible growth) | MIC ([5]; strain 516 (India), no visible growth) | MIC ([5]; strain 518 (VNI India), no visible growth) | MIC ([5]; strain 522 (India), no visible growth) | MIC ([5]; strain 525 (India), no visible growth) | MIC ([5]; strain 1188 (Japan lung), no visible growth) | MIC ([5]; strain 1194 (Italy), no visible growth) | MIC ([5]; strain 1196 (Botswana CSF/AIDS), no visible growth) | MIC ([5]; strain 1197 (Botswana CSF/AIDS), no visible growth) | MIC ([5]; strain H99O (lab strain), no visible growth) | MIC ([5]; strain H99 stud (lab strain), no visible growth) | MIC ([6]; Cryptococcus neoformans, ATCC32269, strain ATCC 32269) | MIC ([6]; Cryptococcus neoformans, ATCC32609, strain ATCC 32609 (NIH444)) | MIC ([6]; Cryptococcus neoformans, ATCC34878, strain ATCC 34878) | MIC ([6]; Cryptococcus neoformans, ATCC34882, strain ATCC 34882) | MIC ([6]; Cryptococcus neoformans, strain 93/980 (CSF France)) | MIC ([6]; Cryptococcus neoformans, strain 94/943-6 (CSF Mexico)) | MIC ([6]; Cryptococcus neoformans, strain 94/943-8 (CSF Mexico)) | MIC ([7]; strain WM 01.127 (USA)) | MIC ([7]; strain WM 02.141 (Russia)) | MIC ([7]; strain WM 02.143 (Russia)) | MIC ([7]; strain WM 02.37 (Canada)) | MIC ([7]; strain WM 04.168 (Chile)) | MIC ([7]; strain WM 04.171 (Thailand, environmental)) | MIC ([7]; strain WM 05.467 (Brazil, environmental)) | MIC ([7]; strain WM 05.515 (Peru)) | MIC ([7]; strain WM 09.109 (Italy, environmental)) | MIC ([7]; strain WM 09.112 (USA)) | MIC ([7]; strain WM 10.119 (Australia)) | MIC ([7]; strain WM 629 (Australia)) | MIC ([7]; strain WM 1706 (Argentina)) | MIC ([7]; strain WM 1740 (Chile)) | MIC ([7]; strain WM 2207 (USA, environmental)) | MIC ([7]; strain WM 2242 (USA)) | MIC ([7]; strain WM 2530 (USA))

CCCCCCC[C@@H](O)CC(=O)N[C@H](CCN)C(=O)N[C@H]1CCNC(=O)[C@H](CC(C)C)NC(=O)[C@H](C)NC(=O)[C@H](CCN)NC(=O)[C@H](CC(C)C)NC(=O)[C@@H](Cc2ccccc2)NC(=O)[C@H](CCN)NC1=O [Compound P7] ({Decanoyl(3R-OH)}-[dDab][Dab][Dab][dF]L[Dab]AL; lactam 2-C)
6.25 µg/mL: MICs against various Cryptococcus strains: ATCC 90113 [2] | MICs against various Cryptococcus strains: H99 [3]
12.5 µg/mL: MICs against various Cryptococcus strains: MMRL 2651 [1, 8] | MICs against various Cryptococcus strains: H99 (cap59Δ) [4]

CCCCCCC[C@@H](O)CC(=O)N[C@H](CCN)C(=O)N[C@H]1CCNC(=O)[C@H](CC(C)C)NC(=O)[C@H](CCN)NC(=O)[C@H](C)NC(=O)[C@H](CC(C)C)NC(=O)[C@@H](Cc2ccccc2)NC(=O)[C@H](CCN)NC1=O [Compound P6] ({Decanoyl(3R-OH)}-[dDab][Dab][Dab][dF]LA[Dab]L; lactam 2-C)
12.5 µg/mL: MICs against various Cryptococcus strains: H99 (cap59Δ) [4]
6.25 µg/mL: MICs against various Cryptococcus strains: MMRL 2651 ([1]; 72 h) | MICs against various Cryptococcus strains: ATCC 90113 [2] | MICs against various Cryptococcus strains: H99 [3]

Reference: article PMC5786788, “Antimicrobial Octapeptin C4 Analogues Active against Cryptococcus Species” (Antimicrobial Agents and Chemotherapy, 2018)
